Test results reported in patent publication US3985740A, “7-[D-(α-amino-α-phenyl-, 2-thienyl- and 3-thienylacetamido)]-3-(5-methylthiazol-2-yl)carbonylthiomethyl-3-cephem -4-carboxylic acids” (Bristol-Myers Company, priority 1974, dated 1976).
In brackets after ≈: the same amount, converted by molar mass. Where two headings read alike, the source gives them in different places.

How the values were obtained:
[1] = tested on: D. pneumoniae A9585; test: M.I.C. by tube dilution; type: cell-based; conditions: Streptococcus pneumoniae, D. pneumoniae + 5% serum, 50% Nutrient Broth - 45% Antibiotic Assay Broth, overnight 37° C.
[2] = tested on: Str. pyogenes A9604; test: M.I.C. by tube dilution; type: cell-based; conditions: Streptococcus pyogenes, Str. pyogenes + 5% serum, 50% Nutrient Broth - 45% Antibiotic Assay Broth, overnight 37° C.
[3] = tested on: S. aureus Smith A9537; test: M.I.C. by tube dilution; type: cell-based; conditions: Staphylococcus aureus, overnight 37° C., read-out: M.I.C.
[4] = tested on: S. aureus BX 1633-2 A9606; test: M.I.C. by tube dilution; type: cell-based; conditions: Staphylococcus aureus, overnight 37° C., read-out: M.I.C.
[5] = tested on: S. aureus methicillin-resistant A15097; test: M.I.C. by tube dilution; type: cell-based; conditions: Staphylococcus aureus, at 10^-^3 dilution, overnight 37° C.
[6] = tested on: S. aureus A9748; test: M.I.C. by tube dilution; type: cell-based; conditions: Staphylococcus aureus, overnight 37° C., read-out: M.I.C.
[7] = tested on: Sal. enteritidis A9531; test: M.I.C. by tube dilution; type: cell-based; conditions: Salmonella enterica, ENTERITIDIS; at 10^-^4 dilution; overnight 37° C.; read-out: M.I.C.
[8] = tested on: E. coli Juhl A15119; test: M.I.C. by tube dilution; type: cell-based; conditions: Escherichia coli, JUHLA15119
[9] = tested on: E. coli A9675; test: M.I.C. by tube dilution; type: cell-based; conditions: Escherichia coli, A9675; at 10^-^4 dilution; overnight 37° C.; read-out: M.I.C.
[10] = tested on: K. pneumoniae A9977; test: M.I.C. by tube dilution; type: cell-based; conditions: Klebsiella pneumoniae, A9977; at 10^-^4 dilution; overnight 37° C.; read-out: M.I.C.
[11] = tested on: K. pneumoniae A15130; test: M.I.C. by tube dilution; type: cell-based; conditions: Klebsiella pneumoniae, A15130; at 10^-^4 dilution; overnight 37° C.; read-out: M.I.C.
[12] = tested on: Pr. mirabilis A9900; test: M.I.C. by tube dilution; type: cell-based; conditions: Proteus mirabilis, A9900; at 10^-^4 dilution; overnight 37° C.; read-out: M.I.C.
[13] = tested on: Pr. morganii A15153; test: M.I.C. by tube dilution; type: cell-based; conditions: Morganella morganii, at 10^-^4 dilution, overnight 37° C., read-out: M.I.C.
[14] = tested on: Ps. aeruginosa A9843A; test: M.I.C. by tube dilution; type: cell-based; conditions: Pseudomonas aeruginosa
[15] = tested on: Ser. marcescens A20019; test: M.I.C. by tube dilution; type: cell-based; conditions: Serratia marcescens
[16] = Blood levels in the mouse after oral administration; type: in vivo
Procedure: Blood levels in the mouse after oral administration were
determined with the following results:

[17] = tested on: certain important pathogenic organisms; test: In vitro activity in the primary screening tests (overall); type: cell-based; conditions: in words
Source text: This combination of good oral absorption and high antibacterial activity in a cephalosporin while highly desirable is quite uncommon in compounds reported to date. […] To illustrate the unpredictability of oral absorption and antibacterial activity in a closely related series of cephalosporin compounds, Tables 1-8 below compare in vitro activities and oral absorption as tested in the mouse of the compounds of the formula ##SPC12##

SMILES: Cc1cnc(C(=O)SCC2=C(C(=O)O)N3C(=O)C(NC(=O)[C@H](N)c4ccccc4)[C@H]3SC2)s1 (stereo partly drawn) [Compound 586, 7-[D-(-)-α-Aminophenylacetamido]-3-(5-methylthiazol-2-yl)carbonylthiomethyl-3-cephem-4-carboxylic acid]
- MIC [1]: 0.16 µg/mL
- MIC [2]: 0.3 µg/mL
- MIC ([3]; SMITHA9537, + 50% serum, at 10^-^4 dilution): > 63 µg/mL
- MIC ([3]; SMITHA9537, at 10^-^4 dilution): 0.3 µg/mL (≈ 0.595 µM)
- MIC ([4]; BX16332A9606, at 10^-^2 dilution): 4 µg/mL (≈ 7.93 µM)
- MIC ([4]; BX16332A9606, at 10^-^3 dilution): 0.6 µg/mL (≈ 1.19 µM)
- MIC [5]: 4 µg/mL (≈ 7.93 µM)
- MIC ([6]; A9748, at 10^-^2 dilution): 63 µg/mL (≈ 125 µM)
- MIC ([6]; A9748, at 10^-^3 dilution): 8 µg/mL (≈ 15.9 µM)
- MIC [7]: 0.3 µg/mL (≈ 0.595 µM)
- MIC [8]: 2 µg/mL (≈ 3.96 µM)
- MIC [9]: 4 µg/mL (≈ 7.93 µM)
- MIC [10]: 4 µg/mL (≈ 7.93 µM)
- MIC [11]: 32 µg/mL (≈ 63.4 µM)
- MIC [12]: 16 µg/mL (≈ 31.7 µM)
- MIC [13]: 63 µg/mL (≈ 125 µM)
- MIC [14]: > 125 µg/mL
- MIC [15]: > 125 µg/mL
- concentration at 0.5 h ([16]; blood, 100 mg/kg, mouse, oral, 100 mgm./kg., 0.5 hrs. after administration, read-out: Blood Level): 34800 ng/mL
- concentration at 1 h ([16]; blood, 100 mg/kg, mouse, oral, 100 mgm./kg., 1 hr. after administration, read-out: Blood Level): 30700 ng/mL
- concentration at 2 h ([16]; blood, 100 mg/kg, mouse, oral, 100 mgm./kg., 2 hrs. after administration, read-out: Blood Level): 13000 ng/mL
- concentration at 3.5 h ([16]; blood, 100 mg/kg, mouse, oral, 100 mgm./kg., 3.5 hrs. after administration, read-out: Blood Level): 7000 ng/mL
- oral absorption ([16]; in words): good oral absorption properties
- Blood Level ([16]; mouse, oral, 100 mgm./kg., 0.5 hrs. after administration): 34800 ng/mL
- activity relative to cephalexin [17]: excellent activity relative to cephalexin
